pKi: −log10 of the molar value.
Target: Bifunctional purine biosynthesis protein ATIC (Homo sapiens, UniProt P31939)
Experiment: Enzyme Activity Assays
Description: Enzyme activity assays of recombinant hGAR Tfase and recombinant hAICAR Tfase were performed as previously described. Kinetics of the enzyme reactions were monitored for 2 min after reaction initiation.

Bifunctional purine biosynthesis protein ATIC, sequence (P31939 whole entry): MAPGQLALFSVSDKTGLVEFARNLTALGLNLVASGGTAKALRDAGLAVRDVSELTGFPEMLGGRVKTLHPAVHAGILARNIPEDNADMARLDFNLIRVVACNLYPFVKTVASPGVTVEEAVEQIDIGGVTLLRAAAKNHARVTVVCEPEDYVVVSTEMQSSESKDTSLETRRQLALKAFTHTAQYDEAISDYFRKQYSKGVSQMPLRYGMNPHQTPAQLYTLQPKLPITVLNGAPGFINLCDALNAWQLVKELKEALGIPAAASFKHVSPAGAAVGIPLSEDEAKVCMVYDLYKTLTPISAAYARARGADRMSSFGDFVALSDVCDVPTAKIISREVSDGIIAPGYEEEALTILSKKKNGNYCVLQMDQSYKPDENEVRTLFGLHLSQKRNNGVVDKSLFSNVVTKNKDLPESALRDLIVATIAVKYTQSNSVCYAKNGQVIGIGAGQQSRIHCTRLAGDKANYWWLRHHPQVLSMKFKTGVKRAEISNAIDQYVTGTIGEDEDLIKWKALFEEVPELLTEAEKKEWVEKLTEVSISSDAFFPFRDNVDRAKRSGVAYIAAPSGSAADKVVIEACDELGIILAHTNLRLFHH

- pKi: < 4.00
SMILES: Nc1nc2c(c(=O)[nH]1)C[C@@H](CCc1ccc(C(=O)NC(CCC(=O)O)C(=O)O)cc1)CN2 (stereo partly specified) [Lometrexol (3)]

Source: BindingDB's records for doi:10.1021/bi4005182 (The Scripps Research Institute, 2013)
